Reference: paper PMC8282797, “Strictly regulated agonist-dependent activation of AMPA-R is the key characteristic of TAK-653 for robust synaptic responses and cognitive improvement” (Scientific Reports, 2021)
Entries after “also recorded” stand apart in the source; their conditions may differ. Read-outs that look alike come from different tables or passages of the source.

Key:
rats [1] = conditions: cited from earlier work
[2] = system: MK-801-induced working memory deficit in rats; parameters: method as in earlier work; conditions: summary, fasted conditions; cited from earlier work
GluA2o LBD = GluA2o LBD (Homo sapiens, UniProt P42262); parameters: method as in earlier work; conditions: read-out: IC50, binding affinity to the GluA2o LBD by SPA using [3H]-HBT1; cited from earlier work
Chain of GluA2o LBD (P42262 with tags, fused parts or gaps): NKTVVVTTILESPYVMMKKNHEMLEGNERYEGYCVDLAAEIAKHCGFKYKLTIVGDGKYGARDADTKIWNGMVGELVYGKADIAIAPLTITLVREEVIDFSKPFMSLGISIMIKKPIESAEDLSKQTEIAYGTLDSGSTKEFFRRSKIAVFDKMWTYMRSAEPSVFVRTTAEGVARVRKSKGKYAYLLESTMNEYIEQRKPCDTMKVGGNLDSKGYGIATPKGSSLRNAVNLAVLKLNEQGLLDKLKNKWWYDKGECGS

AMPA-R [3] = system: AMPA-R; parameters: key to Single effect on AMPA-R currents: -: No effect or slight effect; +: Potent; ++: Very potent; conditions: cited from earlier work; for AMPA-R currents, Agonistic effect @30 μM: absence of AMPA, % of AMPA (100 μM)-induced steady-state response; for EC50: in the presence of 1 μM AMPA, read-out: AMPA-R currents, Potentiation EC50; for Single effect on AMPA-R currents: summary grade
naïve rats = conditions: cited from earlier work; for NORT (effective doses): summary
[4] = parameters: method as in earlier work; conditions: cited from earlier work
AMPA-R [5] = system: AMPA-R; parameters: key to Single effect on Ca2+ level: -: No effect or slight effect; +: Potent; ++: Very potent; conditions: cited from earlier work; for Intracellular Ca2+ level, Agonistic effect @30 μM: absence of AMPA, % of 5 μM AMPA + 10 μM HBT1 response; for EC50: in the presence of 5 μM AMPA, read-out: Intracellular Ca2+ level, Potentiation EC50; for Single effect on Ca2+ level: summary grade
AMPA-R [6] = assay: Whole-cell patch clamp recording in acute PFC slices (AMPA-R-mediated EPSPs); assay type: cell-based, rat; parameters: key to Synaptic EPSP response: -: No effect or slight effect; +: Potent; ++: Very potent; conditions: for Synaptic EPSP response: summary grade
Method: Coronal PFC slices were prepared from male Sprague–Dawley rats (10- to 14-day-old). The slices including layer V PFC pyramidal neurons were perfused at a flow rate of 1–2 ml/min with recording aCSF containing the following: 124 mM NaCl, 5 mM KCl, 1.2 mM NaH2PO4, 1.5 mM MgCl2, 2.5 mM CaCl2, 10 mM glucose, 24 mM NaHCO3 bubbled with carbogen (95% O2; 5% CO2). Current clamp recordings at holding potential of approximately − 65 mV with constant current were carried out at 32–33 °C using a pipette filled with an intracellular solution consisting of: 140 mM K-gluconate, 4 mM KCl, 10 mM HEPES, 0.2 mM EGTA, 4 mM MgATP, 0.3 mM Na2GTP, pH 7.3 with KOH in the presence of bicuculline (20 μM), CGP52422 (10 μM), and APV (50 μM) to block GABAA and B and NMDA receptors, respectively. Methods are described in the Supplementary Information.
Coronal prefrontal cortex (PFC) slices were prepared from male Sprague-Dawley rats (10- to 14-day-old). Animals were sacrificed following acute decapitation, and their brain was quickly removed and placed in an ice-cold modified artificial cerebrospinal fluid (aCSF) of the following composition: 92 mM N-methyl-D-glucamine (NMDG), 2.5 mM KCl, 1.25 mM NaH2PO4, 30 mM NaHCO3, 20 mM HEPES, 25 mM glucose, 2 mM thiourea, 5 mM Na-ascorbate, 3 mM Na-pyruvate, 0.5 mM CaCl2, and 10 mM MgSO4. The pH of the solution was titrated to 7.3-7.4 with concentrated HCl. Coronal slices were cut at a thickness of 300 μm with using a linear slicer PRO7 (Dosaka EM, Kyoto, Japan). Slices were initially recovered for ≤ 15 min at 34°C and then transferred to a holding chamber containing HEPES holding aCSF (92 mM NaCl, 2.5 mM KCl, 1.25 mM NaH2PO4, 30 mM NaHCO3, 20 mM HEPES, 25 mM glucose, 2 mM thiourea, 5 mM Na-ascorbate, 3 mM Na-pyruvate, 2 mM CaCl2 and 2 mM MgSO4) at room temperature for at least 1 h before starting the recording. The slices were then transferred to the recording chamber mounted on a FN1 microscope (Nikon, Tokyo, Japan), in which they were submerged and perfused at a flow rate of 1-2 ml/min with recording aCSF containing the following: 124 mM NaCl, 5 mM KCl, 1.2 mM NaH2PO4, 1.5 mM MgCl2, 2.5 mM CaCl2, 10 mM glucose, 24 mM NaHCO3. All aCSF solutions were continuously bubbled with carbogen (95% O2; 5% CO2). Differential interference contrast (DIC) microscopy (C10639, Hamamatsu, Japan) was used to visualize pyramidal neurons in the PFC. Patch pipettes (5-6 MΩ) were prepared from borosilicate capillary glass using a micropipette puller PC-10 (NARISHIGE, Tokyo, Japan). Current clamp recordings were carried out at 32-33°C using a pipette filled with intracellular solution consisting of: 140 mM K-gluconate, 4 mM KCl, 10 mM HEPES, 0.2 mM EGTA, 4 mM MgATP, 0.3 mM Na2GTP, pH 7.3 with KOH in the presence of bicuculline (20 μM), CGP52422 (10 μM), and APV (50 μM) to block GABAA and B and NMDA receptors, respectively. Signals were recorded using a Multiclamp 700B amplifier (Molecular Devices, LLC, Orleans Drive Sunnyvale, CA), digitized using a Digidata 1440A interface board, filtered between 2 kHz, sampled at 10 kHz, and analyzed with pClamp10 software. Layer V PFC pyramidal neurons were recorded at holding potential of approximately –65 mV with constant current. A hyperpolarizing step (–20 pA) prior to each stimulation was used to monitor any changes in access resistance. Postsynaptic potentials were evoked by constant current single stimulation pulses (100 μs, 10-100 μA) delivered with a 20-s interstimulus interval using monopolar stimulating electrodes positioned in layer I.

rats [7] = system: rats; parameters: method as in PMID 30209408; conditions: 10 and 30 mg/kg, p.o.; cited from earlier work
[8] = system: MK-801-induced working memory deficit in rats; assay: Radial arm maze (RAM) test, MK-801-induced working memory deficit; assay type: in vivo, rat
Method: RAM tests were performed using 9-week-old male Long-Evans rats as previously described with a minor modification. Each arm was 50 cm long, 10 cm wide and 40 cm high, and the maze was elevated 50 cm above the floor. Long-Evans rats were food-restricted to 85% of free-feeding body weight throughout the experimental period. Rats were well trained to collect pellets placed on the edge of each arm. The learning criterion for the testing session was defined as 2 errors or fewer for 2 consecutive days. In the testing session, each rat was placed on the maze facing the fixed arm at the start of the trial. The entry of rats into each arm was recorded in sequence until all pellets in the 8 arms were consumed, or 5 min had elapsed. […] Thirty min after dosing of vehicle or MK-801, rats were placed on the maze. Details are described in the Supplementary Information.
The experiment was performed using 9-week-old male Long-Evans rats as described previously (Zajaczkowski et al., 1996) with a minor modification. Each arm was 50 cm long, 10 cm wide and 40 cm high, and the maze was elevated 50 cm above the floor. After being fasted for 24 h, male Long-Evans rats were food-restricted to 85% of free-feeding body weight on the first day of exposure to the maze and throughout the experimental period. The experiment consists of two sessions, training and testing session. In the training session, rats were habituated to the maze and then trained. Reinforcement consisted of 3 food pellets (45 mg each) in the food cup was used. On the first day of habituation to the maze, reinforcements were placed near the entrance and at the mid-point of each arm. Three rats were placed on the maze at one time and allowed to explore and consume the pellets for 8 min. On the second day of habituation, each rat was placed on the maze and allowed 5 min to consume the pellets placed at the mid-point and in the food cup at the end of each arm. From the third day, reinforcement was placed in the food cup at the end of each arm. Rats were well trained to collect pellets placed on the edge of each arm. The learning criterion for the testing session was defined as 2 errors or less for two consecutive days. In the previous day of the testing session, baseline level of performance was qualified to confirm that rats completed collecting all pellets placed in the 8 arms with two errors or less. In the testing session, each rat was placed on the maze facing away from the experimenter and facing the fixed arm at the start of the trial. The entry of rats into each arm was recorded in sequence. Rats were allowed to explore until all pellets in the 8 arms were consumed, or 5 min had elapsed. Entry into an arm previously chosen was counted as an error. […] […] Thirty min after dosing of vehicle or MK-801, rats were placed on the maze. Data were indicated as the mean ± SEM in the testing session.

Question: Which “Margin based on AUCplasma” value (rats [1]) does the source give for O=S1(=O)CCN2C=CC=C(c3ccc(Oc4ccccc4)cc3)C2=N1 [TAK-137, 9-(4-phenoxyphenyl)-3,4-dihydropyrido[2,1-c][1,2,4]thiadiazine 2,2-dioxide] here?
Answer: The value was 122 fold.

Question: What about the “Margin based on plasma Cmax” value (rats [1]) of the same molecule?
Answer: The value was 42 fold.

Question: And the “RAM (effective doses)” value [2]?
Answer: The value was “Effective (0.2, 0.6) ^\”.

Question: What about the IC50 (GluA2o LBD) of the same molecule?
Answer: Its IC50 is 65 nM.

Question: What about the “AMPA-R currents, Agonistic effect @30 μM” value (AMPA-R [3]) of the same molecule?
Answer: Its value is 6.4%.

Question: What about the EC50 (AMPA-R [3]) of the same molecule?
Answer: The EC50 was 1400 nM.

Question: What about the “Single effect on AMPA-R currents” value (AMPA-R [3]) of the same molecule?
Answer: The value was “─”.

Question: What about the “NORT (effective doses)” value (naïve rats) of the same molecule?
Answer: Its value is “Effective (0.1, 1)”.

Question: And the “Brain concentration under fasted conditions, relative to fed conditions” value [4]?
Answer: The value was 71%.

Question: And the “Plasma concentration under fasted conditions, relative to fed conditions” value [4]?
Answer: The value was 67%.

Question: And the “Intracellular Ca2+ level, Agonistic effect @30 μM” value (AMPA-R [5])?
Answer: The value was 7.6%.

Question: What about the EC50 (AMPA-R [5]) of the same molecule?
Answer: The EC50 was 420 nM.

Question: What about the “Single effect on Ca2+ level” value (AMPA-R [5]) of the same molecule?
Answer: Its value is “─”.

Question: What about the “Polysynaptic EPSP duration and evoked spikes” value (AMPA-R [6]; 3 μM, 10 min) of the same molecule?
Answer: The value was “potently enhanced; also recorded: robustly enhanced”.

Question: And the “Synaptic EPSP response” value (AMPA-R [6])?
Answer: The value was “++”.

Question: Which results are given for CC(C)S(=O)(=O)NC[C@H](C)c1ccc(-c2ccc(C#N)cc2)cc1 [LY451646]?
Answer: Margin based on AUCplasma (rats [1]): 4.0 fold; Margin based on plasma Cmax (rats [1]): 3.4 fold; IC50 (GluA2o LBD): 390 nM; AMPA-R currents, Agonistic effect @30 μM (AMPA-R [3]): 39%; EC50 (AMPA-R [3]): 1900 nM; Single effect on AMPA-R currents (AMPA-R [3]): +; Seizure (rats [7]): induced seizure; Dose improving visual learning and memory in NOR test (naïve rats; p.o., rats): ≥ 1 mg/kg; NORT (effective doses) (naïve rats): Effective (1, 3); Intracellular Ca2+ level, Agonistic effect @30 μM (AMPA-R [5]): 88%; EC50 (AMPA-R [5]): 780 nM; Single effect on Ca2+ level (AMPA-R [5]): ++; Working memory in the RAM test ([8]; 0.03 to 1 mg/kg, p.o., MK-801 0.08 mg/kg, s.c.): neither LY451646 at 0.03 to 1 mg/kg, p.o. nor AMPA at 0.1 to 3 mg/kg, i.p. improve; RAM (effective doses) ([8]; summary): No effect; Membrane potentials of recorded neurons (AMPA-R [6]): did not increase; Suprathreshold response (AMPA-R [6]; 30 μM for 10 min): enhanced the suprathreshold response; Suprathreshold polysynaptic EPSPs (number of spikes, EPSP duration) (AMPA-R [6]; 0.3 to 30 μM): moderate potentiation; Synaptic EPSP response (AMPA-R [6]): +
